Our source for the IC50 values is patent publication US11976059B2 (KOREA RESEARCH INSTITUTE OF CHEMICAL TECHNOLOGY, priority 2018, dated 2024).

Broadly, the IC50 is the concentration needed to halve the response being measured. A higher IC50 goes with weaker potency in that assay.

For the test, the target named is EGFR L858R/T790M/C797S mutant enzyme (Homo sapiens (Human), UniProt P00533, C797S/L858R/T790M). The test can be described thus: EGFR mutant enzyme inhibition, HTRF system (Cisbio). The test is classed as biochemical. The following applies: ATP 1 mM, 37° C. for 2 hours. The procedure: In order to evaluate the inhibitory activity of the compound represented by formula 1 according to the present invention against EGFR mutation, the following experiment was performed.
Chain of EGFR L858R/T790M/C797S mutant enzyme (P00533 25-1210 T790M/C797S/L858R): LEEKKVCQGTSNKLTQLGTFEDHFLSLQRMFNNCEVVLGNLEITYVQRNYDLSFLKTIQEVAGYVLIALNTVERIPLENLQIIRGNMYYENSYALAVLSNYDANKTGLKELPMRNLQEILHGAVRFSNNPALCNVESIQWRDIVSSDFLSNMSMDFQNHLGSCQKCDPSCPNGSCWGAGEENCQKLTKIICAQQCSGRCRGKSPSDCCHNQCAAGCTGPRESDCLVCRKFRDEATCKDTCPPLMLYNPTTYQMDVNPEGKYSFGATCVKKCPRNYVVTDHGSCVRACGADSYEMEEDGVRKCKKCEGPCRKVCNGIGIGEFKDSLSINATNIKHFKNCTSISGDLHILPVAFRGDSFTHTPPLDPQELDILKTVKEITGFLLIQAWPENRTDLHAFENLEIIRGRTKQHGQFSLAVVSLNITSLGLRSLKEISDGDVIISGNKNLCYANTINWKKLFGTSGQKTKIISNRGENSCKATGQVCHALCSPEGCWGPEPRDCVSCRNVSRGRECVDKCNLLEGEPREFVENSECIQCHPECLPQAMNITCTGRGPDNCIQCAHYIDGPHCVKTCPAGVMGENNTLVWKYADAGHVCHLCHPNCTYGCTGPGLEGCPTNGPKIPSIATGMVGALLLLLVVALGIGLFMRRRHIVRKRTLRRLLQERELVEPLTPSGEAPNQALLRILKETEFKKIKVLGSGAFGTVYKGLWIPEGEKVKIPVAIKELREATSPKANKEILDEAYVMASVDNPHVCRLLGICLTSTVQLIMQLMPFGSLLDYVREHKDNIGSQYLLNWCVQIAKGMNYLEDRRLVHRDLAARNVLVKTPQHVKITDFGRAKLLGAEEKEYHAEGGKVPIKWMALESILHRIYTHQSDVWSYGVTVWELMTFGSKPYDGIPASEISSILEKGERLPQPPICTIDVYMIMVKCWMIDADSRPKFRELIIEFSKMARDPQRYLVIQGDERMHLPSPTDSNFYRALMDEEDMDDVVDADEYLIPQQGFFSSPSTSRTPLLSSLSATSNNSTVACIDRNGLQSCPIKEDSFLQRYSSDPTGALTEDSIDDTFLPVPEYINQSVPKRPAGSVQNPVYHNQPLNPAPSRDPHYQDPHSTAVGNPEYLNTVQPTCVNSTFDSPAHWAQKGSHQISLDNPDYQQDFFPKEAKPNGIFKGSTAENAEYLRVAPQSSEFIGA
The activity of the compound of the present invention against EGFR mutant enzyme was measured using the HTRF system of Cisbio Co. As an EGFR L858R/T790M/C797S mutant enzyme, a protein provided by SignalChem was purchased and used as an enzyme source.
The composition of the assay buffer used for the activity measurement was as follows: 50 mM Tris-HCl (pH 7.5), 100 mM NaCl, 7.5 mM MgCl2, 3 mM KCl, 0.01% Tween 20, 0.1% BSA, and 1 mM DTT. Herein, an enzyme reaction was performed using a peptide substrate labeled with ATP at the concentration of 1 mM and biotin at the concentration of 0.5 μM. The analysis of the EGFR activity inhibitory effect of the compound was performed according to the following analytical reaction recipe.
Component 1: 4 μl of EGFR mutant enzyme
Component 2: 2 μl of compound solution
Component 3: 4 μl of ATP and biotin-labeled peptide mixture
The enzyme reaction was initiated by mixing the component 1 and the component 2 first and then adding the component 3 thereto. After reacting the mixture at 37° C. for 2 hours, 10 μl of a measurement solution consisting of streptavidin-XL665 and europium-labeled anti-phosphotyrosine antibody provided by Cisbio was added to the enzyme reaction solution, followed by reaction at room temperature for 1 hour. Finally, the ratio of the fluorescence values at 615 nm and 665 nm was calculated using Envision equipment of Perkin-Elmer to quantitatively measure the enzyme activity and confirm the inhibitory ability of the compound. The values measured at 7 concentrations of the compound were analyzed using Prism program (version 5.01, Graphpad Software, Inc.), and the IC50 value, an index of the inhibitory ability of the compound, was calculated.
(In general: TR-FRET usually uses a lanthanide donor and a delayed reading to cut background.)

With `O=C1c2cc(-c3ccc(N4CCNCC4)cc3)ccc2CN1[C@H](c1cc2ccccc2[nH]1)c1cc(F)ccc1O` [Example 53, (S)-2-((5-fluoro-2-hydroxyphenyl)(1H-indole-2-yl)methyl)-6-(4-(piperazine-1-yl)phenyl)isoindolin-1-one], the IC50 turned out to be 120 nM.
With `Nc1ccc(-c2ccc3c(c2)C(=O)N(C(c2nc4ccccc4[nH]2)c2cc(Cl)ccc2O)C3)cc1` (centres unmarked) [Example 14, 2-((1H-benzo[d]imidazole-2-yl)(5-chloro-2-hydroxyphenyl)methyl)-6-(4-aminophenyl)isoindolin-1-one], half-maximal inhibition (IC50) required 1300 nM.
In the case of `Cc1ccc(O)c([C@H](c2cc3ccccc3[nH]2)N2Cc3ccccc3C2=O)c1` [Example 20, (R)-2-((2-hydroxy-5-methylphenyl)(1H-indole-2-yl)methyl)isoindolin-1-one] it was 1600 nM.
In the case of `CC(=O)N1CCN(c2ccc(-c3ccc4c(c3)C(=O)N([C@@H](c3cc5ccccc5[nH]3)c3cc(F)ccc3O)C4)cc2)CC1` [Example 54, (R)-6-(4-(4-acetylpiperazine-1-yl)phenyl)-2-((5-fluoro-2-hydroxyphenyl)(1H-indole-2-yl)methyl)-isoindolin-1-one] it was 240 nM; in that of `CN1CCN(c2ccc3c(c2)C(=O)N([C@@H](c2cc4ccccc4[nH]2)c2cc(F)ccc2O)C3)CC1` [Example 38, (R)-2-((5-fluoro-2-hydroxyphenyl)(1H-indole-2-yl)methyl)-6-(4-methylpiperazine-1-yl)isoindolin-1-one], 7600 nM.
The figure for `O=C1c2ccccc2CN1C(c1nc2ccc(Cl)cc2[nH]1)c1ccccc1O` (centres unmarked) [Example 4, 2-((6-chloro-1H-benzo[d]imidazole-2-yl)(2-hydroxyphenyl)methyl)isoindolin-1-one] is 4400 nM.
In the case of `O=C1c2ccccc2CN1[C@H](c1cc2cccnc2[nH]1)c1cc(F)ccc1O` [Example 27, (S)-2-((5-fluoro-2-hydroxyphenyl)(1H-pyrrolo[2,3-b]pyridine-2-yl)methyl)isoindolin-1-one], 280 nM corresponded to half-maximal inhibition (IC50).
The figure for `CN1CCN(C2CCN(c3ccc(-c4ccc5c(c4)C(=O)N([C@@H](c4cc6ccccc6[nH]4)c4cc(Cl)ccc4O)C5)cc3)CC2)CC1` [Example 58, (R)-2-((5-chloro-2-hydroxyphenyl)(1H-indole-2-yl)methyl)-6-(4-(4-(4-methylpiperazine-1-yl)piperidine-1-yl)phenyl)isoindolin-1-one] is 3700 nM.
As to `O=C1c2cc(-c3ccc(N4CCNCC4)cc3)ccc2CN1[C@@H](c1cc2ccccc2[nH]1)c1ccccc1O` [Example 31, (R)-2-((2-hydroxyphenyl)(1H-indole-2-yl)methyl)-6-(4-(piperazine-1-yl)phenyl)isoindolin-1-one], half-maximal inhibition (IC50) required 18 nM.
Consider `Nc1ccc(-c2ccc3c(c2)C(=O)N([C@@H](c2cc4ccccc4[nH]2)c2ccccc2O)C3)cc1` [Example 28, (R)-6-(4-aminophenyl)-2-((2-hydroxyphenyl)(1H-indole-2-yl)methyl)isoindolin-1-one], for which half-maximal inhibition (IC50) required 160 nM.
As to `O=C1c2cc(-c3ccc(N4CCOCC4)cc3)ccc2CN1[C@@H](c1cc2ccccc2[nH]1)c1cc(Cl)ccc1O` [Example 46, (R)-2-((5-chloro-2-hydroxyphenyl)(1H-indole-2-yl)methyl)-6-(4-morpholinophenyl)isoindolin-1-one], it took 110 nM to reach half-maximal inhibition (IC50).
Take `O=C1c2cc(-c3ccc(-c4ccncc4)cc3)ccc2CN1[C@@H](c1cc2ccccc2[nH]1)c1cc(F)ccc1O` [Example 47, (R)-2-((5-fluoro-2-hydroxyphenyl)(1H-indole-2-yl)methyl)-6-(4-(pyridine-4-yl)phenyl)isoindolin-1-one]: the IC50 came out at 85 nM.
In the case of `O=C1c2cc(C3=CCNCC3)ccc2CN1C(c1nc2ccccc2[nH]1)c1cc(F)ccc1O` (centres unmarked) [Example 16] it was 2900 nM.
In the case of `CN(C)C1CCN(c2ccc(-c3ccc4c(c3)C(=O)N([C@@H](c3cc5ccccc5[nH]3)c3cc(Cl)ccc3O)C4)cc2)CC1` [Example 62, (R)-2-((5-chloro-2-hydroxyphenyl)(1H-indole-2-yl)methyl)-6-(4-(4-(dimethylamino)piperidine-1-yl)phenyl)-isoindolin-1-one] it was 2200 nM; in that of `O=C1c2ccccc2CN1C(c1nc2cccnc2[nH]1)c1ccccc1O` (centres unmarked) [Example 3, 2-((2-hydroxyphenyl)(3H-imidazo[4,5-b]pyridine-2-yl)methyl)isoindolin-1-one], 2300 nM; in that of `O=C1c2ccccc2CN1[C@@H](c1cc2ccccc2[nH]1)c1cc(Cl)ccc1O` [Example 26, (R)-2-((5-chloro-2-hydroxyphenyl)(1H-indole-2-yl)methyl)isoindolin-1-one], 190 nM.
`CN1CCN(c2ccc(-c3ccc4c(c3)C(=O)N([C@@H](c3cc5ccccc5[nH]3)c3cc(Cl)ccc3O)C4)cc2)CC1` [Example 44, (R)-2-((5-chloro-2-hydroxyphenyl)(1H-indole-2-yl)methyl)-6-(4-(4-methylpiperazine-1-yl)phenyl)isoindolin-1-one] returned an IC50 of 190 nM.
The figure for `O=C1c2cc(-c3ccc(N4CCNCC4)cc3)ccc2CN1C(c1nc2ccccc2[nH]1)c1cc(Cl)ccc1O` (centres unmarked) [Example 11, 2-((1H-benzo[d]imidazole-2-yl)(5-chloro-2-hydroxyphenyl)methyl)-6-(4-(piperazine-1-yl)phenyl)isoindolin-1-one] is 150 nM.
The figure for `O=C1c2cc(-c3ccc(N4CCOCC4)cc3)ccc2CN1[C@@H](c1cc2ccccc2[nH]1)c1cc(F)ccc1O` [Example 45, (R)-2-((5-fluoro-2-hydroxyphenyl)(1H-indole-2-yl)methyl)-6-(4-morpholinophenyl)isoindolin-1-one] is 280 nM; for `O=C1c2cc(-c3ccc(N4CCC(N5CCNCC5)CC4)cc3)ccc2CN1[C@@H](c1cc2ccccc2[nH]1)c1cc(Cl)ccc1O` [Example 60, (R)-2-((5-chloro-2-hydroxyphenyl)(1H-indole-2-yl)methyl)-6-(4-(4-(piperazine-1-yl)piperidine-1-yl)phenyl)isoindolin-1-one] it is 190 nM; for `O=C1c2ccccc2CN1C(c1nc2ccccc2[nH]1)c1cc(F)ccc1O` (centres unmarked) [Example 7, 2-((1H-benzo[d]imidazole-2-yl)(5-fluoro-2-hydroxyphenyl)methyl)isoindolin-1-one] it is 700 nM.
The figure for `N[C@H]1CCN(c2ccc(-c3ccc4c(c3)C(=O)N([C@@H](c3cc5ccccc5[nH]3)c3cc(F)ccc3O)C4)cc2)C1` [Example 71, 6-(4-((S)-3-aminopyrrolidine-1-yl)phenyl)-2-((R)-(5-fluoro-2-hydroxyphenyl)(1H-indole-2-yl)methyl)isoindolin-1-one] is 45 nM; for `O=C1c2cc(C3=CCNCC3)ccc2CN1C(c1nc2ccccc2[nH]1)c1ccccc1O` (centres unmarked) [Example 15, 2-((1H-benzo[d]imidazole-2-yl)(2-hydroxyphenyl)methyl)-6-(1,2,3,6-tetrahydropyridine-4-yl)isoindolin-1-one] it is 8800 nM; for `O=C1c2ccccc2CN1[C@@H](c1cc2ccccc2[nH]1)c1c(O)ccc(F)c1F` [Example 21, (R)-2-((2,3-difluoro-6-hydroxyphenyl)(1H-indole-2-yl)methyl)isoindolin-1-one] it is > 10000 nM.
`O=C1c2cc(-c3ccc(N4CCOCC4)cc3)ccc2CN1C(c1nc2ccccc2[nH]1)c1cc(Cl)ccc1O` (centres unmarked) [Example 40, 2-((1H-benzo[d]imidazole-2-yl)(5-chloro-2-hydroxyphenyl)methyl)-6-(4-morpholinophenyl)isoindolin-1-one]: the IC50 came to 370 nM.
In the case of `CN1CCC(N2CCN(c3ccc(-c4ccc5c(c4)C(=O)N([C@@H](c4cc6ccccc6[nH]4)c4cc(Cl)ccc4O)C5)cc3)CC2)CC1` [Example 66, (R)-2-((5-chloro-2-hydroxyphenyl)(1H-indole-2-yl)methyl)-6-(4-(4-(1-methylpiperidine-4-yl)piperazine-1-yl)phenyl)isoindolin-1-one] it was 410 nM; in that of `O=C1c2cc(-c3ccc(N4CCNCC4)cc3)ccc2CN1[C@@H](c1cc2cccnc2[nH]1)c1cc(F)ccc1O` [Example 49, (R)-2-((5-fluoro-2-hydroxyphenyl)(1H-pyrrolo[2,3-b]pyridine-2-yl)methyl)-6-(4-(piperazine-4-yl)phenyl)isoindolin-1-one], 69 nM.
As for `CN(C)C1CCN(c2ccc(-c3ccc4c(c3)C(=O)N([C@@H](c3cc5ccccc5[nH]3)c3cc(F)ccc3O)C4)cc2)CC1` [Example 61, (R)-6-(4-(4-(dimethylamino)piperidine-1-yl)phenyl)-2-((5-fluoro-2-hydroxyphenyl)(1H-indole-2-yl)methyl)-isoindolin-1-one], the IC50 was determined as 66 nM.
In the case of `O=C1c2ccccc2CN1[C@@H](c1cc2ccccc2[nH]1)c1cc(F)ccc1O` [Example 23, (R)-2-((5-fluoro-2-hydroxyphenyl)(1H-indole-2-yl)methyl)isoindolin-1-one] it was 2400 nM.
